Data reported in ChEMBL document CHEMBL1148962, “Cytotoxic triterpenoid saponins from Symplocos chinensis” (J Nat Prod, 2004).
≈ marks a conversion by molar mass, not a printed value.

Legend:
[1] = test system: A549; test: Cytotoxicity against human A549 cells after 72 hrs by MTT assay; format: functional, cell-based; settings: A549, 72 h
[2] = Selectivity ratio of IC50 for human embryo lung fibroblast to IC50 for human KB cells; format: ADME, cell-based; settings: human embryo lung fibroblasts and KB cells
[3] = Cytotoxicity against human embryo lung fibroblast after 72 hrs by MTT assay; format: cell-based
[4] = test system: HCT-8; test: Cytotoxicity against human HCT8 cells after 72 hrs by MTT assay; format: functional, cell-based; settings: HCT-8, 72 h
[5] = test system: KB; test: Cytotoxicity against human KB cells after 72 hrs by MTT assay; format: functional, cell-based
[6] = test system: BGC-823; test: Cytotoxicity against human BGC823 cells after 72 hrs by MTT assay; format: functional, cell-based; settings: BGC-823, 72 h

`COC(=O)[C@H]1O[C@@H](O[C@H]2CC[C@@]3(C)C(CC[C@]4(C)[C@@H]3CC=C3[C@@H]5CC(C)(C)[C@@H](O)[C@H](O)[C@]5(CO)[C@H](O)[C@H](O)[C@]34C)C2(C)C)[C@H](O[C@@H]2O[C@H](CO)[C@@H](O)[C@H](O)[C@H]2O)[C@@H](O)[C@@H]1O[C@@H]1O[C@@H](CO)[C@H](O)[C@H]1O` (some centres not stated) gave an IC50 [1] of 0.66 µg/mL (≈ 0.666 µM), a selectivity ratio [2] of over 33 and an IC50 [3] of over 10 µg/mL. The IC50 [4] was 6.8 µg/mL (≈ 6.86 µM) and the IC50 [5] was 0.3 µg/mL (≈ 0.303 µM).

`CCCCOC(=O)[C@H]1O[C@@H](O[C@H]2CC[C@@]3(C)C(CC[C@]4(C)[C@@H]3CC=C3[C@@H]5CC(C)(C)[C@@H](OC(=O)/C=C(\C)CCC=C(C)C)[C@H](OC(=O)C(C)CC)[C@]5(CO)[C@H](O)[C@H](O)[C@]34C)C2(C)C)[C@H](O[C@@H]2O[C@H](CO)[C@@H](O)[C@H](O)[C@H]2O)[C@@H](O)[C@@H]1O[C@@H]1O[C@@H](CO)[C@H](O)[C@H]1O` (some centres not stated) showed an IC50 [4] of 2.86 µg/mL (≈ 2.26 µM) and an IC50 [6] of 7.29 µg/mL (≈ 5.75 µM).

For `CCCCOC(=O)[C@H]1O[C@@H](O[C@H]2CC[C@@]3(C)C(CC[C@]4(C)[C@@H]3CC=C3[C@@H]5CC(C)(C)C[C@H](OC(=O)/C=C(\C)CCC=C(C)C)[C@]5(CO)[C@H](O)[C@H](O)[C@]34C)C2(C)C)[C@H](O[C@@H]2O[C@H](CO)[C@@H](O)[C@H](O)[C@H]2O)[C@@H](O)[C@@H]1O[C@@H]1O[C@@H](CO)[C@H](O)[C@H]1O` (some centres not stated), the IC50 [4] was 4.04 µg/mL (≈ 3.46 µM).

`CCC(C)C(=O)O[C@H]1[C@H](OC(=O)/C=C(\C)CCC=C(C)C)C(C)(C)C[C@H]2C3=CC[C@@H]4[C@@]5(C)CC[C@H](O[C@@H]6O[C@H](C(=O)OC)[C@@H](O[C@@H]7O[C@@H](CO)[C@H](O)[C@H]7O)[C@H](O)[C@H]6O[C@@H]6O[C@H](CO)[C@@H](O)[C@H](O)[C@H]6O)C(C)(C)C5CC[C@@]4(C)[C@]3(C)[C@@H](O)[C@@H](O)[C@]21CO` (some centres not stated) [SYMPLOCOSOSIDE A] showed an IC50 [1] of 0.67 µg/mL (≈ 0.547 µM), an IC50 [3] of 4.62 µg/mL (≈ 3.77 µM) and an IC50 [4] of 4.31 µg/mL (≈ 3.52 µM). For the same compound, the IC50 [5] was 1.72 µg/mL (≈ 1.4 µM).
